ChEMBL document CHEMBL4834445, “Discovery of a new class of JMJD6 inhibitors and structure-activity relationship study” (Bioorg Med Chem Lett, 2021)
Activity calls are given as the source filed them. The rule behind the calls is not given here.

Columns and labels:
[1] = target: T1, Bifunctional arginine demethylase and lysyl-hydroxylase JMJD6 (Homo sapiens, UniProt Q6NYC1); assay: Inhibition of JMJD6 (unknown origin) by Succinate-Glo assay
[2] = target: T1, Bifunctional arginine demethylase and lysyl-hydroxylase JMJD6; assay: Inhibition of JMJD6 (unknown origin)
[3] = target: T1, Bifunctional arginine demethylase and lysyl-hydroxylase JMJD6; assay: Inhibition of JMJD6 (unknown origin) at 100 uM by Succinate-Glo assay
RNA demethylase ALKBH5 [4] = target: T2, RNA demethylase ALKBH5 (Homo sapiens, UniProt Q6P6C2); assay: Inhibition of ALKBH5 (unknown origin) by Succinate-Glo assay
Target sequence in this assay (Q6P6C2 whole entry): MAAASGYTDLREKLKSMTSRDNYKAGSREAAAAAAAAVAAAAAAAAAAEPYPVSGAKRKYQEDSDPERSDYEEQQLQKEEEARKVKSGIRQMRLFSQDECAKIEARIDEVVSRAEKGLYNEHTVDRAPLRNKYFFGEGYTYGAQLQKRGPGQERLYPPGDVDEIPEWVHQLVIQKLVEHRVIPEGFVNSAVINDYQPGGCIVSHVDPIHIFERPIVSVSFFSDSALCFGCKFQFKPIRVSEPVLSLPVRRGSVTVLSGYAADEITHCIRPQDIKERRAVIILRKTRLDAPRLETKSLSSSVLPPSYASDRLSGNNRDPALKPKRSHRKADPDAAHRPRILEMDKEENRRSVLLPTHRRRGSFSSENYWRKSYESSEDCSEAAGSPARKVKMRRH

[5] = target: T1, Bifunctional arginine demethylase and lysyl-hydroxylase JMJD6; assay: Binding affinity to JMJD6 in human HeLa cells assessed as inhibition of temperature-dependent protein degradation by CETSA; type: cell-based
[6] = target: T1, Bifunctional arginine demethylase and lysyl-hydroxylase JMJD6; assay: Binding affinity to JMJD6 (unknown origin) assessed as thermal stability of the protein by measuring change in melting temperature by differential scanning fluorimetry
RNA demethylase ALKBH5 [7] = target: T2, RNA demethylase ALKBH5; assay: Binding affinity to ALKBH5 (unknown origin) by differential scanning fluorimetry
Target sequence in this assay (Q6P6C2 2-394 limits assumed): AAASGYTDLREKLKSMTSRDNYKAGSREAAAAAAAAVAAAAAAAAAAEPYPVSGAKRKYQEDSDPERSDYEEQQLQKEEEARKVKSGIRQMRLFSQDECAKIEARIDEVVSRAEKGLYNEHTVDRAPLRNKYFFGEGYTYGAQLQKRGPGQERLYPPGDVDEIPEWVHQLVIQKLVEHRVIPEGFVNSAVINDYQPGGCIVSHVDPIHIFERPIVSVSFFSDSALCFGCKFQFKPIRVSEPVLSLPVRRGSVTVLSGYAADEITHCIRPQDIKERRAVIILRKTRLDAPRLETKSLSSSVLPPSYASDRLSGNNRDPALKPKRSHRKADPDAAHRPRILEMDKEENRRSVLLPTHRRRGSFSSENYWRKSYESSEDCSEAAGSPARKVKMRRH

[8] = target: T3, Lysine-specific demethylase 5A (Homo sapiens, UniProt P29375); assay: Binding affinity to KDM5A (unknown origin) by differential scanning fluorimetry
T3 sequence (P29375 whole entry): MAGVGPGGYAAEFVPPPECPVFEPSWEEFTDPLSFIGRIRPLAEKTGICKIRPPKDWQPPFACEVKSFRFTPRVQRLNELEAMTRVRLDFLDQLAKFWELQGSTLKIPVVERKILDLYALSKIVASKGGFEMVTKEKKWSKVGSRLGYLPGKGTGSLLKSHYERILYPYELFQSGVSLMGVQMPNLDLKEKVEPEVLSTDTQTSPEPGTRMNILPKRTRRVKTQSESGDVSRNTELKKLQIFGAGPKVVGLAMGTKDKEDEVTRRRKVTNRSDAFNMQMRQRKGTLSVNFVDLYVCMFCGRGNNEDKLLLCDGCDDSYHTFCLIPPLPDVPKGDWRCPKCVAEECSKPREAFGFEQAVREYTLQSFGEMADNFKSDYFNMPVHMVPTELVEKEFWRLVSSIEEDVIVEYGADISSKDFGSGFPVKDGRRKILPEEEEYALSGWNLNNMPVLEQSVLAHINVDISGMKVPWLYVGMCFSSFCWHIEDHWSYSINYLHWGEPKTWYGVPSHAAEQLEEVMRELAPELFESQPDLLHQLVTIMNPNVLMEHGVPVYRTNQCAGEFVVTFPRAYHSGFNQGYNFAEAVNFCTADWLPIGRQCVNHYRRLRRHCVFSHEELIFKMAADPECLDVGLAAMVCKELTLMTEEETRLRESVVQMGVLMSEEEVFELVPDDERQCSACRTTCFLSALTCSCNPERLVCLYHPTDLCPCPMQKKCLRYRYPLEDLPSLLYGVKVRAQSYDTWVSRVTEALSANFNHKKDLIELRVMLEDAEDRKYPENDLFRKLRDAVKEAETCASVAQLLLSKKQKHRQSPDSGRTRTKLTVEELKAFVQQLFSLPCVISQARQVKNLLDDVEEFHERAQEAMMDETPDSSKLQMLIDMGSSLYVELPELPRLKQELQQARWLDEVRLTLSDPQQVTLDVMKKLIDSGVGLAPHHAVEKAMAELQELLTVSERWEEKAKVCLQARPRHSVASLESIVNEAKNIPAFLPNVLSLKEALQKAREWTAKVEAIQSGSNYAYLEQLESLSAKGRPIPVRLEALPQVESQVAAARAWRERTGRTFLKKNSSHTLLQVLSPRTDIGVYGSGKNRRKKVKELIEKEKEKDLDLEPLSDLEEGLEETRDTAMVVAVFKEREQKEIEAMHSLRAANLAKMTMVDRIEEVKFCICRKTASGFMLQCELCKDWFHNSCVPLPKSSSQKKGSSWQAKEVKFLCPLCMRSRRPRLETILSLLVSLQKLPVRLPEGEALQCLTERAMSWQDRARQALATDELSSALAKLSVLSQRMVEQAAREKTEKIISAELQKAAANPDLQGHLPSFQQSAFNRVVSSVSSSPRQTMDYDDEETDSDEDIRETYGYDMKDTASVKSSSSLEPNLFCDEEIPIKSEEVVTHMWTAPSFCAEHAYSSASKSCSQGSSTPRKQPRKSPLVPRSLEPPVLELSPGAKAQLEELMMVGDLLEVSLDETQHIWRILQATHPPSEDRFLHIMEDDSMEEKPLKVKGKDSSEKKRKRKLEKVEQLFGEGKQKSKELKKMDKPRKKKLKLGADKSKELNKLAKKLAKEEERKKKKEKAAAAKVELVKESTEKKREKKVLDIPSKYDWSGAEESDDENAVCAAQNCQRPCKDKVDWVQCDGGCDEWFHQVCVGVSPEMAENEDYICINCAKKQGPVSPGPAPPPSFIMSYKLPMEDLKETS

[9] = target: T4, Lysine-specific demethylase 3B (Homo sapiens, UniProt Q7LBC6); assay: Binding affinity to KDM3B (unknown origin) by differential scanning fluorimetry
T4 sequence (Q7LBC6 whole entry): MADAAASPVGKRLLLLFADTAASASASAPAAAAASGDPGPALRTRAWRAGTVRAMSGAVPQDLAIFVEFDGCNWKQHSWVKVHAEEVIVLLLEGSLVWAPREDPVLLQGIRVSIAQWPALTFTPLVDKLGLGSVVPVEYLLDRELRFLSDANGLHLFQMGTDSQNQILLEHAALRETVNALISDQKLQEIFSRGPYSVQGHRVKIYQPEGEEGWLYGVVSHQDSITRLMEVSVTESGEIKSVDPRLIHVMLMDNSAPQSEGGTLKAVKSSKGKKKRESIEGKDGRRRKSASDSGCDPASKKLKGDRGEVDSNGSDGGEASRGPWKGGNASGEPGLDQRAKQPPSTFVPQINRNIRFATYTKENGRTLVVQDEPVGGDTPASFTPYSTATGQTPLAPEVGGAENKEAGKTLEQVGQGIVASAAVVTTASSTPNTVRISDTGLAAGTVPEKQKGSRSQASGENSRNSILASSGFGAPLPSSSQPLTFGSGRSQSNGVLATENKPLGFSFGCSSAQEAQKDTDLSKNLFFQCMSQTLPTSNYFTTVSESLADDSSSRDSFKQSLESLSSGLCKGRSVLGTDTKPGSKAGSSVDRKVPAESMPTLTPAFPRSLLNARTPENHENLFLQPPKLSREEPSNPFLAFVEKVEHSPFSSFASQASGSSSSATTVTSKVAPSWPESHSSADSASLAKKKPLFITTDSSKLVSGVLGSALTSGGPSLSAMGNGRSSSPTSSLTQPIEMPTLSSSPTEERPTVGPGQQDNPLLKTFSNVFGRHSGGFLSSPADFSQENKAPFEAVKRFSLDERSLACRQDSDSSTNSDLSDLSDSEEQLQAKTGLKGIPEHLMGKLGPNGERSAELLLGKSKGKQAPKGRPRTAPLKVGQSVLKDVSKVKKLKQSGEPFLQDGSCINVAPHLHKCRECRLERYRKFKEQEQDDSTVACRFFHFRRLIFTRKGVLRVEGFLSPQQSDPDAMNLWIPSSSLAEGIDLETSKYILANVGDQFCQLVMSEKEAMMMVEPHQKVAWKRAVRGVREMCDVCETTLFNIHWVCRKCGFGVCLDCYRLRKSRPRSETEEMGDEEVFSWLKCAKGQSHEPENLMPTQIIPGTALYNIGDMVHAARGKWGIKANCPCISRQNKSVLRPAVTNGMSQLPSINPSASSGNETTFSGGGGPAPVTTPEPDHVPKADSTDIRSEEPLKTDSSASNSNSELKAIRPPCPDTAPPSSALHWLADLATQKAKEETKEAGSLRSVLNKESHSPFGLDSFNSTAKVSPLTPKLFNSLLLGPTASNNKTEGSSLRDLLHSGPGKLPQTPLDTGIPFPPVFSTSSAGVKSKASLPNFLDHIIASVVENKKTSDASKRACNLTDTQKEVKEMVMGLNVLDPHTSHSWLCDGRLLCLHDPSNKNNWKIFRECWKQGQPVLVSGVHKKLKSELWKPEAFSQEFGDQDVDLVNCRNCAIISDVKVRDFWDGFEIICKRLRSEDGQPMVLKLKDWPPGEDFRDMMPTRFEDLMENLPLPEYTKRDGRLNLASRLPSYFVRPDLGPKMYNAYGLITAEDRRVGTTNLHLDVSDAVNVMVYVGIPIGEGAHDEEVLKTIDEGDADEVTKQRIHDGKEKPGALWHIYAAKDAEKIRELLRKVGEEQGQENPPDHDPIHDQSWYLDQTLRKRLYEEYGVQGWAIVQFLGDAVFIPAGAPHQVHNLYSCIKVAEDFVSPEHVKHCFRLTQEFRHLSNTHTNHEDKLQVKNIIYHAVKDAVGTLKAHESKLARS

[10] = target: T3, Lysine-specific demethylase 5A; assay: Inhibition of KDM5A (unknown origin) by AlphalLISA assay
[11] = target: T5, Bifunctional peptidase and (3S)-lysyl hydroxylase JMJD7 (Homo sapiens, UniProt P0C870); assay: Inhibition of JMJD7 (unknown origin) by Succinate-Glo assay
T5 sequence (P0C870 whole entry): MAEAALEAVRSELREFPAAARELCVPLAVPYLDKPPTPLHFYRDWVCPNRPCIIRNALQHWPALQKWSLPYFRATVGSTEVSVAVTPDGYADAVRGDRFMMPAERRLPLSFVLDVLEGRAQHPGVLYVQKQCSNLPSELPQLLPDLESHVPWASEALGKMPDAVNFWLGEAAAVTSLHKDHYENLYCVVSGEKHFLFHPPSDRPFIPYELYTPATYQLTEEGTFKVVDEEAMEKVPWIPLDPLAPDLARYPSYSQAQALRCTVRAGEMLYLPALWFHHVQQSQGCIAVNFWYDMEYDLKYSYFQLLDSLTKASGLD

[12] = target: T6, Lysine-specific demethylase 4D (Homo sapiens) (UniProt Q6B0I6); assay: Binding affinity to KDM4D (unknown origin) by differential scanning fluorimetry
T6 sequence (whole entry): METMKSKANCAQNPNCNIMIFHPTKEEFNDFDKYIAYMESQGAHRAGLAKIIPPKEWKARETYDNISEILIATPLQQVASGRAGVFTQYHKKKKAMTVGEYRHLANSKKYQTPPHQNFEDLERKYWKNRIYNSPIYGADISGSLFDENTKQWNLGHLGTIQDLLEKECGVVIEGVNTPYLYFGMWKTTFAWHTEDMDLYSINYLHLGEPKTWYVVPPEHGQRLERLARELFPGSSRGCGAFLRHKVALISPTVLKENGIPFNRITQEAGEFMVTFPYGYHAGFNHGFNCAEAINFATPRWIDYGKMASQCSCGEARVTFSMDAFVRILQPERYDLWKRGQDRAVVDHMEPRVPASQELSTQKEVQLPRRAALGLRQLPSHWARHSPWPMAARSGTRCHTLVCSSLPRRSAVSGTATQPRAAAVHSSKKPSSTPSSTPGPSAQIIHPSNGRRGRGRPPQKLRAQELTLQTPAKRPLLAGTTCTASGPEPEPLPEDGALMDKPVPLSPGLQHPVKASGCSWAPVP

[13] = target: T4, Lysine-specific demethylase 3B; assay: Inhibition of KDM3B (unknown origin) by Succinate-Glo assay
[14] = target: T5, Bifunctional peptidase and (3S)-lysyl hydroxylase JMJD7; assay: Binding affinity to JMJD7 (unknown origin) by differential scanning fluorimetry
[15] = target: T7, Lysine-specific demethylase 4D (Homo sapiens, UniProt Q6B0I6); assay: Inhibition of KDM4D (unknown origin) by Succinate-Glo assay
T7 sequence (Q6B0I6 whole entry): T6 sequence (whole entry)

Structure (SMILES)	IC50 [1] [µM]	further results
CCNC(=O)c1ccnc(-c2ccn(C)n2)c1	> 100	
Cc1cc(O)nc(NN=Cc2ccccc2O)n1		IC50 [2]: 0.78 µM
CCOC(=O)c1ccnc(-c2nn(C)cc2-c2ccc3occc3c2)c1	> 100	
Cn1ccc(-c2cc(C(=O)OCC(F)F)ccn2)n1	1.12	
CCOC(=O)c1cccc(-c2ccn(C)n2)c1	> 100	
CCCOC(=O)c1ccnc(-c2ccn(C)n2)c1	1.34	
Cn1ccc(-c2cc(C(=O)OC3CCCC3)ccn2)n1	43.5	
CCOC(=O)c1cc(C)nc(-c2ccn(C)n2)c1	> 100	
CCOC(=O)c1ccnc(-c2ccn(C)n2)c1	0.914	
CCOC(=O)c1cc(-c2ccn(C)n2)ncc1F	23.1	
CCOC(=O)c1ccc(-c2ccn(C)n2)nc1	> 100	
CC(C)COC(=O)c1ccnc(-c2ccn(C)n2)c1	11.8	
CCOC(=O)c1ccnc(-c2cc[nH]n2)c1	19.9	inhibition [1]: Dose-Dependent Effect; inhibition [3]: 76%
COC(=O)c1ccnc(-c2ccn(C)n2)c1	1.86	
CCOC(=O)c1ccnc(-c2nn(C)cc2-c2cccc(N3CCOCC3)c2)c1	20.4	
CCOC(=O)c1ccnc(-c2ccn(CC)n2)c1	2.43	
Cn1ccc(-c2cc(C(=O)OCC(F)(F)F)ccn2)n1	0.681	IC50 (RNA demethylase ALKBH5 [4]): > 100 µM; Activity [5]: Active; ΔTm [6]: 1.94 °C; Activity (RNA demethylase ALKBH5 [7]): inactive; Activity [8]: inactive; Activity [9]: inactive; IC50 [10]: > 100 µM; IC50 [11]: > 100 µM; Activity [12]: inactive; IC50 [13]: > 100 µM; Activity [14]: inactive; IC50 [15]: > 100 µM

Structure (SMILES)	IC50 [1] [µM]	further results
CCOC(=O)c1ccnc(-c2nn(C)cc2-c2cc3ccccc3c3ccccc23)c1	> 100	
Cn1ccc(-c2cc(C(N)=O)ccn2)n1	> 100	
Cn1ccc(-c2cc(C(=O)OCCF)ccn2)n1	1.45	
CCOC(=O)c1ccnc(-c2ccn(C(C)C)n2)c1	> 100	
CCOC(=O)c1ccnc(-c2ccnn2C)c1	> 100	
Cn1ccc(-c2cc(C(=O)OCC3CC3)ccn2)n1	3.8	
Cn1ccc(-c2cc(C(=O)OCc3ccccc3)ccn2)n1	5.69	
CCOC(=O)c1ccnc(-c2nn(C)cc2-c2cc(OC)cc(OC)c2)c1	> 100	
CC(C)OC(=O)c1ccnc(-c2ccn(C)n2)c1	1.94	
CCOC(=O)c1cccnc1-c1ccn(C)n1	> 100	
Cn1ccc(-c2cc(C(=O)O)ccn2)n1	1.71	
Cn1ccc(-c2cc(-c3cnn[nH]3)ccn2)n1	12.9	
CCOC(=O)c1ccnc(-c2nn(C)cc2-c2cccc(C)c2)c1	22.9	
CCOC(=O)c1ccnc(-c2nn(C)cc2-c2ccc(OC)nc2)c1	24.9	
Cn1ccc(-c2cc(C(=O)OCC3CCC3)ccn2)n1	2.53	
CCOC(=O)c1cc(-c2ccn(C)n2)ncc1C(F)(F)F	> 100	
CCOC(=O)c1ccnc(-c2nn(C)cc2-c2ccccc2)c1	15.2	
